The subject of series [1] is chorio-allantoic membrane of hen embryonated egg. The source says:
The first step was to evaluate the cytotoxicity of the composition in a chicken embryonated egg chorio-allantoic membrane (HET-CAM) assay (FIG. 1).

The next series concerns monoamine oxidase (MAO). Conditions: in vitro; cited from earlier work.
Series [2] concerns Salmonella enterica serovar Enteritidis (phagetype PT4). As to the kind of experiment: Salmonella challenge: deaths and serum cytokines (Example 1, phase 2). Type of series: in vivo, rat. Conditions: oral treatment 20 days, dose 257 mg/kgPV (Enramicine 96 mg/kgPV). The source says:
In phase 2, the experiment consisted of repeating the treatments of Phase 1, for 10 days, and inoculating the groups, except the so-called naive (negative control), with a high dose of Salmonella enteritidis. After 20 days, the mortality and the behavior of the immune system of the rats of each group were observed.
In this way, different groups of male rats were randomly marked on the tails for identification. The animals were adapted to the laboratory environment for one week before the beginning of the experiments. After a 6 h fasting period, the animals' body weight was determined and the dose of the prebiotics, the composition of this invention and Enramycin were calculated. The animals were divided into 11 (eleven) groups of 10 (ten) individuals. The animals were treated daily, by the oral route (used in the animals used as reference), with placebo (vehicle; filtered water 1 mL/kg BW) or with FOS ingredion (257 mg/kg BW), FOS Yes (257 mg/kg BW). kgPV), GOS Yes (257 mg/kgPV), Yes MOS (257 mg/kgPV), GlucanMOS (257 mg/kgPV), Glucangold Yes (77 mg/kgPV), Mixture 1 (FOS Yes+GOS Yes) (257 mg/kgPV), Composition of this invention (GlucanGold Yes+GOS Yes+FOS Yes, containing 20% of 1,3 and 1,6 beta-glucans, 31% of GOS and 29% of FOS by mass on mass %) ([…]). All treatments were performed for 20 days. After 10 days from the beginning of treatments, the aforementioned groups received a challenge with 1 mL (10^8 colony forming units [cfu]/mL) of a strain of Salmonella enterica serovar Enteritidis (phagetype PT4), orally (gavage).
An experimental group called naive underwent sham gavage (no treatment) and was not infected with any bacterial strain. At the end of the experiments, and before euthanasia, the surviving animals were fasted for 6 hours with free access to water. Then, under anesthesia with isoflurane (2-3%), 5 mL of blood was obtained from the left jugular vein for the evaluation of biochemical parameters. After this procedure, the animals were euthanized with a supra-pharmacological dose of isoflurane (10-15%) in a saturation chamber. Immediately after euthanasia, target organs were removed for analysis.
Table 8, below, indicates the effects of treatments with different isolated components, with the Composition according to the invention, or with Enramincin, on the serum levels of interleukin 10 (IL-10), IL-6 and tumor necrosis factor alpha (TNF-alpha) from male Wistar rats infected with Salmonella enterica.

The test system of series [3] is male Wistar rats. Nature of the series: Serum IL-10, IL-6 and TNF-alpha after 10 days of oral treatment (Example 1, Phase 1). Type of series: in vivo, rat. The note with it: oral daily 10 days, dose 257 mg/kgPV (Enramicine 96 mg/kgPV), mean ± standard error. How it is done: (§1) In Phase 1, the experiment consisted of providing the same amount (in mg), per kg of live weight (mg/kg BW), of each of the components of the composition of this invention, as well as the same amount of the composition, and comparing the effects with that of control animals, which received placebo or the antibiotic Enramycin. After 10 days, an evaluation of the immune system of the […] of each of the groups was carried out.
(§2) In this way, different groups of male Wistar rats were randomly marked on the tails for identification. The animals were adapted to the laboratory environment for one week before the treatments. Initially, after a 6 h fasting period, the body weight of the animals was determined and the dose of the Composition and Enramycin […] were calculated. The animals were divided into 11 (eleven) groups of 10 (ten) individuals. The animals were treated daily, orally (used in the animals used as reference), with placebo (vehicle; filtered water 1 mL/kg BW) or with FOS Ingredion (257 mg/kg BW), FOS Yes (257 mg/kg BW) kgPV), GOS Yes (257 mg/kgPV), Yes MOS (257 mg/kgPV), Yes GlucanMOS (257 mg/kgPV), Glucangold Yes (77 mg/kgPV), Mixture 1 (FOS Yes+GOS Yes) (257 mg/kgPV), Composition of this invention (GlucanGold Yes+GOS Yes+FOS Yes, containing 20% of 1,3 and 1,6 beta-glucans, 29% of GOS and 31% of FOS by mass on total mass %) ([…]). An experimental group called naive underwent simulated gavage (without any treatment). All the animals that composed the different experimental groups received the treatment for 10 days. At the end of the experiments, and before euthanasia, the animals were fasted for 6 hours with free access to water. Final body weight was recorded to calculate relative organ weight. Then, under anesthesia with isoflurane (2-3%), 5 mL of blood was obtained from the left jugular vein for the evaluation of biochemical parameters. After this procedure, the animals were euthanized with a supra-pharmacological dose of isoflurane (10-15%) in a saturation chamber. […]

The subject of series [4] is male Wistar rats. As to the kind of experiment: Tissue levels of lipoperoxides (LPO) after 10 days of oral treatment (Example 1, Phase 1). Type of series: in vivo, rat. The note with it: oral daily 10 days, mean ± standard error.
Series [5] relates to male Wistar rats. Nature of the series: Serum redox state markers after 10 days of oral treatment (Example 1, Phase 1). Type of series: in vivo, rat. Conditions: oral daily 10 days, dose 257 ml/kgPV, mean ± standard error. How it is done: as §1, §2
[6] abbreviates: serum, Salmonella-infected male Wistar rats, mean ± standard error.
Setting [7] is: dose 257 mg/kgPV (Enramicine 96 mg/kgPV).
[8] abbreviates: dose 257 ml/kgPV (Enramicine 96 ml/kgPV).

Marks after values point to notes of the source that are not given here.

In the case of `[Na+].[OH-]` [NAOH, Sodium Hydroxide], in series [1], the “hemorrhagic (cytotoxic) effect / irritation on chorio-allantoic membrane” value is recorded as “lyse blood vessels, resulting in hemorrhage”.

Regarding `COc1cc(C2Oc3cc([C@H]4Oc5cc(O)cc(O)c5C(=O)[C@@H]4O)ccc3OC2CO)ccc1O` (stereo partly drawn) [siliinin], the “inhibition of monoamine oxidase (MAO) activity” value in the series on monoamine oxidase (MAO) is “inhibits the activity of monoamine oxidase (MAO)”.

Enramycin [Enramicine]: the Deaths in series [2] (male Wistar rats, Salmonella enterica challenge (1 mL, 10^8 cfu/mL) after 10 days) amounted to 0%. Also, in series [2] (setting [6]), the IL-6 was found to be 249.7 ± 37.7 pg/mL, the IL-10 is recorded as 16.6 ± 0.9^b pg/ml and the TFN-alfa was 10.7 ± 1.1^b pg/ml. Besides, in the series on male Wistar rats [3], the IL-6 came to 210.5 ± 25.5 pg/mL, the IL-10 worked out at 15.3 ± 5.1 pg/mL and the TFN-alfa is 8.0 ± 1.5 pg/mL. In the series with male Wistar rats [4] (setting [7]), the “LPO, Kidneys” value is given as 119.4 ± 7.1 U/mg of protein; the “LPO, Liver” value is listed as 170.1 ± 14.1 U/mg of protein; the “LPO, Spleen” value is 117.5 ± 10.1 U/mg of protein. In the series on male Wistar rats [4] (setting [8]), the “tissue lipoperoxides (LPO), Cecum” value is listed as 170.2 ± 10.0; the “tissue lipoperoxides (LPO), Colon” value is 230.2 ± 11.2; the “tissue lipoperoxides (LPO), Ileum” value was 117.9 ± 14.2. In the series on male Wistar rats [5], the Malondialdehyde is 2.1 ± 0.15 mmol/L, the Nitrite came to 45.3 ± 5.51% and the Nitrotirosine was 0.007 ± 0.003 µmol/L.

The record behind these values is US20240358782A1, “Regulatory Composition of the Neuro-Immune-Endocrine and Cortisol Reducing System of the Human Being” (priority 2020, published 2024).
